The record followed here is US6683029B1, “Halopyrimidines” (Bayer Aktiengesellschaft, priority 1999, dated 2004).

Usually chromatographic logP stands for lipophilicity estimated from chromatographic retention. A low value points to lower lipophilicity. As usually defined, the logP is the decadic logarithm of the partition coefficient of the neutral form, usually between octanol and water.

The nature of data set [1]: logP by HPLC (EEC Directive 79/831 Annex V. A8).
In another data set the test system is Plutella. Briefly: Plutella test/synthetic feed. Type of data set: in vivo. The settings on record: Plutella larvae on treated synthetic feed; concentration and time not stated. The procedure:
Plutella Test/Synthetic Feed [table] […] A stated amount of the preparation of active compound of the desired concentration is pipetted onto a standardized amount of synthetic feed. After the methanol has evaporated, a film box lid covered with about 100 Plutella eggs is placed onto each cavity. The freshly hatched larvae migrate onto the treated synthetic feed. After the desired period of time, the kill in % is determined. 100% means that all animals have been killed; 0% means that none of the animals have been killed.

The molecule `CON=C(C(=O)OC)c1ccccc1Oc1ncnc(Oc2cccc(F)c2)c1F` [Example 1, Methyl 2-{2-[6-(3-fluorophenoxy)-5-fluoro-pyrimidin-4-yloxy]-phenyl}-2-methoxyiminoacetate] registered a chromatographic logP in data set [1] of 3.46.
Take `CON=C(C(=O)OC)c1ccccc1Oc1ncnc(Oc2cc(Cl)ccc2Cl)c1F` [Example 10]: the “activity (kill)” value in the data set on Plutella is “good activity”.
`CCSCc1ccccc1Oc1ncnc(Oc2ccccc2C(=NOC)C(=O)OC)c1F` [Example 16] gave a logP in data set [1] (HPLC, gradient method, acetonitrile/0.1% aqueous phosphoric acid) of 3.97.
